Measurements reported in patent US20220105054A1, “ABSORPTION ENHANCER OF CINNAMIC ACID DERIVATIVE” (YAMADA BEE COMPANY, INC., priority 2020, published 2022).
Like-named read-outs stand apart in the source and are kept apart here.

Conditions: rat, in vivo; for AUC Mean ± SD / Cmax Mean ± SD: po, 50 mg/kg
Experimental: The following administration liquids were prepared. 10% propylene glycol: a propylene glycol liquid having a concentration of 10% was prepared by diluting propylene glycol with distilled water.
Propolis solution: the required amount of propolis powder (Brazilian green propolis) was weighed and ground in a mortar, and the 10% propylene glycol was added to dissolve the powder to prepare a propolis solution with a concentration of 25 mg/mL as the propolis concentration.
Curcumin suspension: the required amount of curcumin powder (C. longa extract (ethyl acetate extract powder, curcumin content of 95% by mass)) was weighed and ground in a mortar, and then the 10% propylene glycol was added to suspend the powder to prepare a curcumin suspension with a curcumin concentration of 100 mg/mL.
Eighteen 7-week-old male rats (Slc: Wistar/ST, SPF, Japan SLC, Inc.) were acclimated for 7 days. The rats were allowed to freely ingest the solid feed CRF-1 (Oriental Yeast Co., ltd.). The rats were fasted for 8 to 10 hours before the administration of the administration liquids. The rats were divided into three groups of six rats each by a stratified allocation method using EXSUS (Version 10.0.0, EP Croit Co., Ltd.) so that the weight of each group was equal.
In the propolis group, the propolis solution was administered immediately after the administration of 10% propylene glycol. In the propolis+curcumin A group, the propolis solution was administered immediately after the administration of the curcumin suspension. In the propolis+curcumin B group, the propolis solution was administered about 30 minutes after the administration of the curcumin suspension. The administration was carried out in a volume of 2 ml/kg rat body weight for each administration solution. In other words, 50 mg of propolis and 200 mg of curcumin were administered per 1 kg of rat body weight. The administration was carried out under no anesthesia by using a syringe (Terumo Corporation) and an oral feeding needle for rats (Fuchigami Kikai, Ltd).
Blood collection of rats was carried out once 30 minutes before the administration of propolis solution (but before the administration of curcumin suspension in the group with the curcumin suspension administrated) and 0.5, 1, 1.5, 2, 3, 6, 9, and 24 hours after the administration of propolis solution. At each blood sampling time, the tail of rats was disinfected with 70% ethanol under no anesthesia, and then the tip of the tail was cut with a razor to collect about 150 μL of leaking blood by using a hematocrit tube (Fisher Scientific 22-362-566). Nine hours after administration of the propolis solution, feeding was resumed for all fasting animals.
The blood, which had been stored in ice after collection, was centrifuged (1600 ×g, 10 min, 4° C.) using a micro high-speed cooling centrifuge (model MX-100: Tomy Seiko Co., Ltd.) to collect plasma from the blood. The plasma was frozen and stored in a −80° C. freezer.
The concentrations of p-coumaric acid, artepillin C, drupanin, culifolin, capillartemisin A, 3,4-dihydroxy-5-prenyl-(E)-cinnamic acid, and 2,2-dimethylchromene-6-(E)-propenoic acid, kaempferide, 6-methoxy kaempferide, and dihydro kaempferide in the resulting plasma were quantified by LCMS.
For each ingredient, the maximum blood concentration (Cmax) and the area under the curve (AUC) were calculated from the resulting concentrations. AUC is an indicator of the total amount of each ingredient absorbed into the body. […] The ratio in the table indicates the ratio of the mean value of the propolis+curcumin A group to that of the propolis group. Statistics were carried out by t-test.

| AUC Mean ± SD | Cmax Mean ± SD | AUC Ratio (male, Slc: Wistar/ST) | Cmax Ratio (male, Slc: Wistar/ST) | SMILES | AUC Ratio | Cmax Ratio | increase in absorption compared to the propolis group |
| --- | --- | --- | --- | --- | --- | --- | --- |
| 84.5 ± 4.49 | 18.48 ± 4.02 |  |  | CC1(C)C=Cc2cc(/C=C/C(=O)O)ccc2O1 [2,2-dimethylchromene-6-(E)-propenoic acid] | 1.27 | 1.56 |  |
| 51.02 ± 28.27 | 7.5 ± 7.5 | 1.25 | 1.53 | CC(C)=CCc1cc(/C=C/C(=O)O)cc(O)c1O [3,4-dihydroxy-5-prenyl-(E)-cinnamic acid] |  |  |  |
|  |  |  |  | COc1ccc(-c2oc3cc(O)c(OC)c(O)c3c(=O)c2O)cc1 [6-methoxy kaempferide, reference compound] |  |  | no significant increase in absorption was observed |
| 1088.92 ± 68.35 | 68.98 ± 5.16 |  |  | CC(C)=CCc1cc(/C=C/C(=O)O)cc2c1OC(C)(C)C=C2 [Culifolin] | 1.26 | 1.34 |  |
|  |  |  |  | COc1ccc(C2Oc3cc(O)cc(O)c3C(=O)C2O)cc1 (stereo not shown) [dihydro kaempferide, reference compound] |  |  | no significant increase in absorption was observed |
|  |  |  |  | COc1ccc(-c2oc3cc(O)cc(O)c3c(=O)c2O)cc1 [kaempferide, reference compound] |  |  | no significant increase in absorption was observed |
| 983.44 ± 372.02 | 343.72 ± 41.6 | 1.07 | 1.42 | O=C(O)/C=C/c1ccc(O)cc1 [p-Coumaric acid] |  |  |  |

| SMILES | AUC Mean ± SD | Cmax Mean ± SD | AUC Ratio (male, Slc: Wistar/ST) | Cmax Ratio (male, Slc: Wistar/ST) | AUC Ratio | Cmax Ratio | increase in absorption compared to the propolis group |
| --- | --- | --- | --- | --- | --- | --- | --- |
| CC(C)=CCc1cc(/C=C/C(=O)O)cc(CC=C(C)C)c1O [Artepillin C] | 811.33 ± 191.31 | 77.7 ± 13.11 |  |  | 1.39 | 1.7 |  |
| CC(C)=CCc1cc(/C=C/C(=O)O)cc(C/C=C(\C)CO)c1O [Capillartemisin A] | 109.74 ± 12.25 | 10.39 ± 2.01 |  |  | 1.83 | 1.91 |  |
| CC(C)=CCc1cc(/C=C/C(=O)O)ccc1O [Drupanin] | 486.19 ± 34.29 | 93.12 ± 19.93 |  |  | 1.41 | 1.98 |  |
